What was measured:
corneal ulcer = experiment: Eye drop given to a patient with corneal ulcer; format: in vivo; conditions: patient suffering from corneal ulcer, over a period of two weeks
Protocol: An eye drop containing compound 1 is administered to a patient suffering from corneal ulcer over a period of two weeks.

bacterial conjunctivitis = experiment: Eye drop given to a patient with bacterial conjunctivitis; format: in vivo; conditions: patient suffering from bacterial conjunctivitis, over a period of two weeks
Protocol: An eye drop containing compound 1 is administered to a patient suffering from bacterial conjunctivitis over a period of two weeks.

## COc1c(N2CCN[C@H](C)C2)c(F)cc2c(=O)c(C(=O)OC(C)C(=O)Oc3cccc4c3C(=O)C3=C(O)C5(O)C(=O)C(C(N)=O)=C(O)C(N(C)C)C5CC3C4(C)O)cn(C3CC3)c12 (stereo partly shown) [Compound 1]
Corneal ulcer
  bacterial infection after the complete treatment: eliminated
  symptoms after the complete treatment: relief of symptoms is experienced
Bacterial conjunctivitis
  bacterial infection after the complete treatment: eliminated
  symptoms after the complete treatment: relief of symptoms is experienced

— US20060105941A1, “Mixed antibiotic codrugs” (ALLERGAN, INC., priority 2004, published 2006)
